Source: BindingDB's records for PubMed 32698113 (Sichuan University, 2020)

Test: Inhibition of human neutrophil elastase activity assessed as reduction in […]

- IC50: > 10 µM
Structure (SMILES): COc1cc2c(c3c1CCC(c1ccccc1)O3)C1C3C(c4ccc(O)c(C)c4OC)C(C(O)(OC)c4ccccc4)C14C(C=CC(=O)C4OC)OC3(c1ccccc1)O2 (stereo unspecified)
